Values joined by “and” are separate entries in the source; they are usually repeats but may differ in a detail not shown here. Equal entries are not always repeated.
Columns and labels:
[1] = tested on: DNBS-induced colitis; set-up: method as in PMID 28410442, PMID 30559669; conditions: oral administration in mice at both 50 and 25 mg/kg; cited from earlier work
[2] = tested on: isolated recombinant NLRP3; set-up: method as in PMID 28410442; conditions: cited from earlier work
[3] = tested on: THP-1 cells; conditions: 72 h treatment, 0.1–100 µM, MTT; TC50 ± SEM of three experiments
[4] = target: T1, human recombinant NLRP3 (Homo sapiens, UniProt Q96P20); assay: In vitro NLRP3 ATPase activity, on-bead ADP-Glo assay with immobilised NLRP3-GFP; format: biochemical; conditions: for Inhibition of NLRP3 ATPase activity (% reduction in ATP hydrolysis relative to vehicle control) / inhibition at 100 µM: 100 μM compound, ATP 800 μM, mean ± SEM, n = 4; for inhibition at 100 µM: read-out: Inhibition of NLRP3 ATPase activity (% reduction in ATP hydrolysis relative to vehicle control)
T1 construct: made in house; host or cells: HEK293T cells (transient transfection, captured from lysate on GFP-Trap Sepharose)
T1 sequence (Q96P20 whole entry): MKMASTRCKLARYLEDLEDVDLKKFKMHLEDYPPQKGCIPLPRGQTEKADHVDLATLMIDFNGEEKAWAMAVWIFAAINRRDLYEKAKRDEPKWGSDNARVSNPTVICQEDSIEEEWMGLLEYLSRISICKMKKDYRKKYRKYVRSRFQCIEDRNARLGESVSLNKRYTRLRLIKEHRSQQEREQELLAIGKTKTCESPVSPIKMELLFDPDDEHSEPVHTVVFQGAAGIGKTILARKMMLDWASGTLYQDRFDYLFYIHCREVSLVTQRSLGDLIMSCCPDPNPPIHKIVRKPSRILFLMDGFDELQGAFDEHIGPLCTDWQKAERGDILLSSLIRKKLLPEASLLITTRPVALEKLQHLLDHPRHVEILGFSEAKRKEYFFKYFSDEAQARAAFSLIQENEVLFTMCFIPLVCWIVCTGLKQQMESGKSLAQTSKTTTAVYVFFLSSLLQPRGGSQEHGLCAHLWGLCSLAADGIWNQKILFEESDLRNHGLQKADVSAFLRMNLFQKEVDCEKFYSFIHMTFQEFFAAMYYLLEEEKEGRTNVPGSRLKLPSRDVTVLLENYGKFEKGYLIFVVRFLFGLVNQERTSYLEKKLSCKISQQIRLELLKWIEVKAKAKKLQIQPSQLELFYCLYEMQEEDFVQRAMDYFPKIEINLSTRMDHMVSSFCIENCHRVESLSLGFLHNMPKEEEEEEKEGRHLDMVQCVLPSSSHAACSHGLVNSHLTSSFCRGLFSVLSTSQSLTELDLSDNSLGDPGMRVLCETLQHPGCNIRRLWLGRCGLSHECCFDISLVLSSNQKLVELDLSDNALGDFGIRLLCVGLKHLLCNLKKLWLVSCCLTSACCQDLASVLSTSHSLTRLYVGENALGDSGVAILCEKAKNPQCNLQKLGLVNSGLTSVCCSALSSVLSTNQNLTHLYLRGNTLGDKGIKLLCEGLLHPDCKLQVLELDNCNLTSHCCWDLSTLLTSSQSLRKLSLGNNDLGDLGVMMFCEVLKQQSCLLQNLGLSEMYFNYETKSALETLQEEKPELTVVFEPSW

[5] = tested on: IL-1β release in differentiated THP-1 cells; assay: IL-1β release (ELISA) in supernatants of LPS/ATP-treated differentiated THP-1 cells; format: cell-based, human; conditions: same experiments as pyroptosis, vs vehicle-treated cells, mean ± SEM; for inhibition at 10 µM: Homo sapiens, THP-1, 10 µM test compound
Procedure: Different techniques could be used to study NLRP3 inhibitors; the use of differentiated THP-1 cells treated with NLRP3 activating stimuli is suitable for the screening of large series of compounds [48]. All the synthesised compounds (Figure 2) were evaluated for their NLRP3 inhibitory activity by measuring their ability to prevent NLRP3-dependent pyroptosis in differentiated THP-1 cells. THP-1 cells were differentiated into macrophages by treatment with phorbol-myristate acetate (PMA; 50 nM; 24 h) and then treated with lipopolysaccharide (LPS; 10 µg/mL; 4 h) to promote NLRP3 expression. The cells were then incubated with test compounds at the fixed concentration of 10 µM for 1 h. Test compounds were dissolved in serum free medium containing 0.1% DMSO as the vehicle. NLRP3 was activated by the addition of ATP (5 mM), and the pyroptotic cell death was evaluated after 1.5 h by measuring the lactate dehydrogenase (LDH) released in the cell supernatants. The obtained results, expressed as pyroptosis% decrease with respect to vehicle-treated cells, are collected in Table 1. In the same experiments, the release of IL-1β was measured via an ELISA assay and the results, expressed as % inhibition of IL-1β release versus vehicle-treated cells, are reported in Table 1. Finally, the cytotoxicity of the synthesised compounds was evaluated by MTT assay after treatment of THP-1 cells with increasing concentration of test compounds (0.1–100 µM) for 72 h. […] The structural modulation of compound 2 was then carried out in order to understand whether it was possible to restore/increase the activity without the re-introduction of a Michael acceptor substructure.
Human myelomonocytic THP-1 cells were cultured in RPMI 1640 medium (Aurogene, Rome, Italy) supplemented with fetal bovine serum (10%; Aurogene), L-glutamine (2 mM; Aurogene), penicillin (100 IU/mL; Aurogene) and streptomycin ([…]; Aurogene). Cell culture medium was replaced every 2−3 days, and the cultures were maintained at 37 °C and 5% CO2 in a fully humidified incubator. The day before each experiment, cells were plated in 48-well culture plates (90.000 cells/well) and were differentiated by treatment with PMA (50 nM, 24 h; Sigma-Aldrich). PMA-differentiated THP-1 cells were washed twice with phosphate-buffered saline (PBS) and primed with LPS (10 μg/mL, 4 h; Sigma-Aldrich) in serum-free medium. Cells were then incubated with compounds dissolved in medium containing 0.1% DMSO for 1 h and cell death was triggered with ATP (5 mM, 90 min; Sigma-Aldrich). MCC950 (Sigma-Aldrich batch #45216 and batch #85021 and from Crysdot (product n. CD31002496; OS05876-18070932) was used in the experiments.
IL-1β release was quantified in differentiated THP-1 supernatant, obtained as previously described, using Human IL-1 beta Uncoated ELISA kit (Invitrogen, Waltham, MA, USA), according to the manufacture’s instruction.

[6] = tested on: NLRP3-dependent pyroptosis in differentiated THP-1 cells; assay: NLRP3-dependent pyroptosis (LDH release) in PMA-differentiated, LPS-primed, ATP-triggered THP-1 cells; format: cell-based, human; conditions: Homo sapiens; for inhibition at 10 µM: THP-1, 1.5 h, 10 µM test compound, 1 h before ATP (5 mM, 90 min), vs vehicle-treated cells, mean ± SEM, NA = not active at 10 µM, read-out: Pyroptosis Decrease, % inhibition at 10 µM

Structure (SMILES) | Prevention of DNBS-induced colitis [1] | Inhibition of ATP hydrolysis by NLRP3 [2] | Cytotoxicity TC50 [3] | Inhibition of NLRP3 ATPase activity (% reduction in ATP hydrolysis relative to vehicle control) [4] | inhibition at 10 µM [5] | inhibition at 10 µM [6] | inhibition at 100 µM [4] | NLRP3 ATPase inhibition at 1 mM compared with 100 µM ([4]; 1 mM vs 100 µM compound, data not shown) | inhibition at 1 µM ([6]; THP-1, 1 µM test compound (Figure 3)) | IL-1β Inhibition, % inhibition at 10 µM ([5]; 10 µM test compound, 10 µM)
C=C(Cc1ccccc1Cl)C(=O)OCC [INF39] | able to prevent DNBS-induced colitis | inhibited ATP hydrolysis | – | – | – | – | – | – | – | –
CCOC(=O)Cn1c(=O)n(C(=O)CCc2ccccc2Cl)c2ccccc21 [Compound 17, Ethyl 2-(3-(3-(2-chlorophenyl)propanoyl)-2-oxo-2,3-dihydro-1H-benzo[d]-imidazol-1-yl)acetate] | – | – | 95.4 ± 1.1 µM | inactive | 24.2 ± 11.2% | 25.1 ± 4% | – | – | – | –
O=C(CCc1ccccc1Cl)NCCn1c(=O)[nH]c2ccccc21 [Compound 9, 3-(2-chlorophenyl)-N-(2-(2-oxo-2,3-dihydro-1H-benzo[d]imidazol-1-yl)ethyl) propanamide] | – | – | 87.1 ± 1.9 µM | restored the ATPase inhibition | 20.3 ± 1.3% | 39.2 ± 6.6% | 18.3 ± 3.2% | no significant differences | 20 to 30% | –
C=C(Cc1ccccc1Cl)C(=O)N1CCC(n2c(=O)[nH]c3ccccc32)CC1 [Compound 1, 1-(1-(2-(2-chlorobenzyl)acryloyl)piperidin-4-yl)-1,3-dihydro-2H-benzo[d]imidazol-2-one] | – | – | 32.9 ± 19 µM and 32.9 ± 19.0 µM | – | 19.4 ± 0.4% | 24.9 ± 6.3% | 28.4 ± 2.6% | – | – | 14.4 ± 5.0%

— paper PMC8271538, “Chemical Modulation of the 1-(Piperidin-4-yl)-1,3-dihydro-2H-benzo[d]imidazole-2-one Scaffold as a Novel NLRP3 Inhibitor” (Molecules, 2021)
